Earlier results, collected in patent US7834015B2, “Pyrrolo[1,2-a] pyrazin-1(2H)-one and pyrrolo[1,2-d][1,2,4]triazin-1(2H)-one derivatives as inhibitors of poly(ADP-ribose)polymerase (PARP)” (Instituto di Ricerche Di Biologia Molecolare P. Angeletti …, priority 2006, dated 2010).

Test system: ischemia and reperfusion of the heart or skeletal muscle
Conditions: rabbits

Row | SMILES | reduced infarct size (single injection 1 mg/kg) | reductions in infarct size in the heart (single injection 10 mg/kg, one minute before occlusion or one minute before reperfusion)
1 | Oc1cccc2c(O)nccc12 [1,5-dihydroxyisoquinoline] | 38-48% | 
2 | NC(=O)c1cccc(N)c1 [3-amino-benzamide] |  | 32-42%
